Experimental data published in US20100113430A1, “THIOXANTHENE DERIVATES USEFUL TO TREAT INFECTIOUS DISEASES” (BKG PHARMA APS, priority 2007, published 2010).
Values after ≈ are worked out from the molar mass of the structure shown.

Assays:
Type in all cases: cell-based
[1] = tested on: Candida albicans clinical isolate; assay: MIC (90% growth inhibition), broth microdilution NCCLS M27-A, Candida albicans; conditions: strain 1. Candida albicans FR (fluconazole resistant)
Protocol: (§1) Cell growth was tested using the Minimal Inhibitory Concentration (MIC) susceptibility tests by use of the microdilution broth method in accordance to the NCCLS Guidelines (NCCLS Guidelines, Methods for Dilution Antimicrobial Susceptibility Tests for Bacteria That Grow Aerobically; Approved Standard, Sixth Edition, Volume 23; Number 2). The minimum inhibitory concentration (MIC), is defined ad the lowest concentration of drug which inhibits growth of the test organism, in the sense that no visible growth is detected (total inhibition of growth). In example 2 MIC of the compounds used on fungal microorganisms was determined from the IC90 measurements according to NCCLS Guidelines.
The antibacterial effect of demethylated/dealkylated phenothiazine or thioxanthene compounds were studied by growth inhibition studies exposing cells to 0-32 μg/ml of drug. Each experiment was repeated in triplicate. MIC values represent the mean values of two separate triplicate experiments.
4 clinical isolates of Candida sp. (including 3 fluconazole resistant isolates) were subcultured for 24 h on Sabouraud glucose agar before susceptibility testing. Broth microdilution tests were performed according to NCCLS document M27-A (Ref: National Committee for Clinical Laboratory Standards. (1997). Reference Method for Broth Dilution Antifungal Susceptibility Testing of Yeasts: Approved Standard M27-A. NCCLS, Wayne, Pa.). Microtitre plates were read spectrophotometrically at 530 nm, after mixing the wells by pipetting to resuspend yeast sediments. In this experiment, the MIC was defined as the lowest drug dilution resulting in 90% growth inhibition.

[2] = tested on: Gram negative sp.; assay: MIC/IC90 broad spectrum, Gram negative sp.; conditions: 25 strains, 20 resistant
Protocol: as §1
(§2) A log phase culture of bacteria was diluted with fresh pre-warmed Mueller-Hinton medium and adjusted to a defined OD at 600 nm in order to give a final concentration of 1×10^4-5 bacteria/ml medium. The bacterial culture was transferred to microtiter-plates and culture was added to each well. Drug was added to the bacterial culture in the wells as two-fold dilution series of drug in order to give final concentrations ranging from 0.03 to 128 μg/ml. Trays were incubated at 37° C. by shaking in a robot analyzer, PowerWavex, software KC^4′ Kebo.Lab, Copenhagen, for 16 h and optical densities were measured at 600 nm during the incubation time in order to record growth curves. Wells containing bacterial culture without drug were used as controls to ensure correct inoculum size and bacterial growth during the incubation. Cultures were tested in order to detect contaminations. Each experiment was repeated in triplicate. MIC values represent the mean values of two separate triplicate experiments. Intra- and interassay variation was <5%.
Inhibition 90 (IC90) is defined as: OD responding a 90% growth inhibition.
A broad spectrum of bacteria were cultured and assayed as described above for susceptibility towards N-dealkyl-clopenthixol.

[3] = tested on: Fluconazole Resistant Candida albicans clinical isolate; assay: MIC (80% growth inhibition), broth microdilution NCCLS M27-A, fluconazole resistant Candida albicans; conditions: fluconazole resistant Candida albicans; MIC = 80% growth inhibition
Protocol: The antimicrobial effect of N-dealkyl-trans-clopenthixol and N-dealkyl-trans-flupenthixol was studied by exposing cells to 0-8 μg/ml of the compounds in two-fold dilutions. Each experiment was repeated in triple duplicate. MIC values represent the mean values of two separate experiments.
Clinical Isolate of A Fluconazole Resistant Candida albicans from a Patient with Candidemia.
The isolates were subcultured for 24 h on Sabouraud glucose agar before susceptibility testing. Broth microdilution tests were performed according to NCCLS document M27-A (Ref: National Commitee for Clinical Laboratory Standards. (1997). Reference Method for Broth Dilution Antifungal Susceptibility Testing of Yeasts: Approved Standard M27-A. NCCLS, Wayne, Pa.)
Microtitre plates were read spectrophotometrically at 530 nm, after mixing the wells by pipetting to resuspend yeast sediments. The MIC was defined as the lowest drug dilution resulting in 80% growth inhibition.

[4] = tested on: Enterococcus faecium resistant clinical isolates; assay: MIC/IC90, resistant clinical isolates of Enterococcus faecium
Protocol: as §1, §2
Inhibition 90 (IC90) is defined as: OD responding a 90% growth inhibition. […]
Clinically relevant isolates were cultured and assayed as described above.

[5] = Enterococcus faecium 16, BLR, CR

Structure (SMILES): Clc1ccc2c(c1)/C(=C/CCN1CCNCC1)c1ccccc1S2 [N-dealkyl-trans-clopenthixol, trans-1-(3-(2-chloro-thioxanthen-9-ylidene)propyl)piperazine]
- MIC [1]: 1 µg/mL (≈ 2.8 µM)
- MIC (mean) [2]: 2 µg/mL (≈ 5.6 µM)
- MIC range [2]: 0.5 to 2 µg/mL
- MIC [3]: 3 µg/mL (≈ 8.41 µM)
- IC90 ([4]; Enterococcus faecium 11, VanA): 0.6 µg/mL (≈ 1.68 µM)
- MIC ([4]; Enterococcus faecium 11, VanA): 1 µg/mL (≈ 2.8 µM)
- IC90 ([4]; Enterococcus faecium 12, VanA): 0.6 µg/mL (≈ 1.68 µM)
- MIC ([4]; Enterococcus faecium 12, VanA): 1 µg/mL (≈ 2.8 µM)
- IC90 ([4]; Enterococcus faecium 13, VanB): 0.5 µg/mL (≈ 1.4 µM)
- MIC ([4]; Enterococcus faecium 13, VanB): 1 µg/mL (≈ 2.8 µM)
- IC90 ([4]; Enterococcus faecium 14, HLAR): 0.5 µg/mL (≈ 1.4 µM)
- MIC ([4]; Enterococcus faecium 14, HLAR): 1 µg/mL (≈ 2.8 µM)
- IC90 ([4]; Enterococcus faecium 15, HLAR): 0.5 µg/mL (≈ 1.4 µM)
- MIC ([4]; Enterococcus faecium 15, HLAR): 1 µg/mL (≈ 2.8 µM)
- IC90 [4, 5]: 0.6 µg/mL (≈ 1.68 µM)
- MIC [4, 5]: 1 µg/mL (≈ 2.8 µM)
- IC90 ([4]; Enterococcus faecium 17, VanB): 0.5 µg/mL (≈ 1.4 µM)
- MIC ([4]; Enterococcus faecium 17, VanB): 1 µg/mL (≈ 2.8 µM)
- IC90 ([4]; Enterococcus faecium 18, VanB): 0.6 µg/mL (≈ 1.68 µM)
- MIC ([4]; Enterococcus faecium 18, VanB): 1 µg/mL (≈ 2.8 µM)
- IC90 ([4]; Enterococcus faecium 19, VanB): 0.6 µg/mL (≈ 1.68 µM)
- MIC ([4]; Enterococcus faecium 19, VanB): 1 µg/mL (≈ 2.8 µM)
- MIC ([4]; Enterococcus faecium multiresistant isolate, Example 4): 0.5 µg/mL (≈ 1.4 µM)
